Laboratory results taken from patent US20250129135A1, “Multi-Agonist and Use Thereof” (priority 2021, published 2025).
Where two headings read alike, the source gives them in different places. Starred links: 1 amine or outer side, 2 acyl side, 3 side chain; linkers in the order of their positions; H or OH if unused. Non-standard residues stand in square brackets, D forms with d. Residues, ends and D or L forms follow the SMILES beside them. Groups on a side chain read outwards from the residue. *: point of attachment. C20 diacid = O=C(O)CCCCCCCCCCCCCCCCCCC(=O)*; αMePhe(2-F) = C[C@](N)(Cc1ccccc1F)C(=O)O; γGlu = O=C(O)[C@H](CCC(=O)[*:2])N[*:1]; αMeF = C[C@](N)(Cc1ccccc1)C(=O)O; αMeL = CC(C)C[C@](C)(N)C(=O)O; AEEA = NCCOCCOCC(=O)O; Ac3c = NC1(C(=O)O)CC1; Aib = CC(C)(N)C(=O)O

Key:
Human GIP R = target: T1, Human GIP R (Homo sapiens, UniProt P48546); experiment: cAMP (HTRF) activity in CHO cells stably overexpressing GIP receptor; format: cell-based; details: for Human GIP R Rel. A (Relative Activity): EC50 of human GIP / EC50 of compound; for EC50: stable transfected cell cAMP activity, at least 3 independent tests
T1 construct: expressed in transfected cells; host or cells: CHO
T1 sequence (P48546 22-466): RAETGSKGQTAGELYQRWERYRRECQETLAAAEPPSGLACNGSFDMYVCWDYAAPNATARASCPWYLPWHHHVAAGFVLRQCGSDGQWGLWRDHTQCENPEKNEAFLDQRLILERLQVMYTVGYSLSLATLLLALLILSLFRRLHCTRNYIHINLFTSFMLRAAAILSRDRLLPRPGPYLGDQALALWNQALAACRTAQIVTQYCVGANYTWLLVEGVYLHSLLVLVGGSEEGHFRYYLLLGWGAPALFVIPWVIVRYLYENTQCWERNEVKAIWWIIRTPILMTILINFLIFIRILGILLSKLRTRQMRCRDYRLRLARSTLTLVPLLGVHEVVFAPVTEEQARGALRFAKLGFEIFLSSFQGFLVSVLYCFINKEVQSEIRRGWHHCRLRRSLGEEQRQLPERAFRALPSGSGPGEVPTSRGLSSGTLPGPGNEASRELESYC
Experimental: (§1) By measuring the cAMP signal response levels of the aforementioned cells, the agonistic activity of individual compound towards the corresponding receptor was determined. The intracellular cAMP content was measured using reagent kit available from Cisbio Corp. based on HTRF (homogeneous time-resolved fluorescence) technology.
(§2) The cell fluid was transferred to 10 ml of HBSS for resuspension, and centrifuged at 1000 rpm for 5 minutes at room temperature.
(§3) 10 μL cell suspension was added to each well in the 384 well plate. […] Using the ECHO liquid transfer system, 100 nL of the prepared compound solution was added to the corresponding cell suspensions in the 384 well plate, rotated and shaken at 1000 rpm for 1 minute to mix evenly, and then incubated at room temperature for 60 minutes. 10 μL of detection reagent was added to each well after drug incubation was completed, and incubation was performed in the kit at room temperature for 60 minutes. […] GraphPad Prism 5 plotting software was used to create compound concentration response curves and EC50 (nM) values was calculated.

Human GCG R = target: T2, Human GCG R (Homo sapiens, UniProt P47871); experiment: cAMP (HTRF) activity in HEK-293 cells stably overexpressing human GCG receptor; format: cell-based; details: for Human GCG R Rel. A (Relative Activity): EC50 of human GCG / EC50 of compound
T2 construct: expressed in transfected cells; host or cells: HEK-293
Experimental: as §1, §2, §3

RIN-m5F cells = format: cell-based, rat; details: for Rel. A (Relative Activity) on RIN-m5F: relative to GLP-1(7-37)
Experimental: This experiment measured the cAMP level produced by the compound on RIN-mF cells.
Frozen […] cells were placed in a 37° C. constant temperature water bath for rapid thawing and recovery. The cell solution was transferred to 10 ml of HBSS for resuspension, and centrifuged at 1000 rpm for 5 minutes at room temperature.
(§4) 10 μL cell suspension was added to each well in the 384 well plate. […] Using the ECHO liquid transfer system, 100 nL of the prepared compound solution was added to the corresponding cell suspensions in the 384 well plate, rotated and shaken at 1000 rpm for 1 minute to mix evenly, and then incubated at room temperature for 60 minutes. 10 μL of detection reagent was added to each wells after drug incubation was completed, and incubation was performed for 60 minutes.

3T3-L1 adipocytes = details: for Rel. A (Relative Activity) on 3T3-L1 adipocyte: relative to GIP
Experimental: Mouse 3T3-L1 precursor adipocytes can be induced to differentiate into mature adipocytes. […] After the cells became full and contacted with each other, DMEM differentiation medium containing 20% FBS, 0.5 mM IBMX, 0.4 ug/mL dexamethasone, and 5 ug/mL insulin was used to induce differentiation of 3T3-L1 adipocyte. After 5 days of induction and cultivation, DMEM medium containing […], 4 ug/ml insulin, and 10 uM rosiglitazone was used to continue induction and cultivation for 3 days. Then, DMEM medium containing 10% FBS was used to continue cultivation for 2-3 days to induce mature 3T3-L1 adipocytes.
The cAMP level produced by the compound on 3T3-L1 adipocytes was determined in this experiment. The tested compound solution was diluted step by step according to a concentration gradient of 3 times, to obtain a total of 10 series of concentration solutions. The solutions were added to induced mature 3T3-L1 adipocytes and incubated at room temperature for 60 minutes. 10 μL detection reagent in the kit was added to each well after drug incubation, and incubated at room temperature for another 60 minutes. […] GraphPad Prism 5 plotting software was used to create compound concentration-effect curves and calculation was performed.

[1] = tested on: human primary liver cells; format: cell-based; details: for Rel. A (Relative Activity) on human primary liver cells: relative to GCG
Experimental: The cAMP levels produced by compounds on human primary liver cells were determined in this experiment. Human primary liver cells were purchased from Lonza (cell product number HUCPG).
Frozen human primary liver cells were placed in a 37° C. constant temperature water bath for rapid thawing and recovery. The cell solution was transferred to 10 ml of HBSS for resuspension, and centrifuged at 1000 rpm for 5 minutes at room temperature.
as §4, with “well” for “wells”

Human GLP-1R = Human GLP-1R (Homo sapiens, UniProt P43220); experiment: cAMP (HTRF) activity in HEK-293 cells stably overexpressing human GLP-1 receptor; format: cell-based; parameters: expressed in transfected cells; host or cells: HEK-293; details: for Human GLP-1R Rel. A (Relative Activity): EC50 of human GLP-1 (7-37) / EC50 of compound; for EC50: stable transfected cell cAMP activity, at least 3 independent tests
Experimental: as §1, §2, §3

Chain of Human GLP-1R (P43220 24-463): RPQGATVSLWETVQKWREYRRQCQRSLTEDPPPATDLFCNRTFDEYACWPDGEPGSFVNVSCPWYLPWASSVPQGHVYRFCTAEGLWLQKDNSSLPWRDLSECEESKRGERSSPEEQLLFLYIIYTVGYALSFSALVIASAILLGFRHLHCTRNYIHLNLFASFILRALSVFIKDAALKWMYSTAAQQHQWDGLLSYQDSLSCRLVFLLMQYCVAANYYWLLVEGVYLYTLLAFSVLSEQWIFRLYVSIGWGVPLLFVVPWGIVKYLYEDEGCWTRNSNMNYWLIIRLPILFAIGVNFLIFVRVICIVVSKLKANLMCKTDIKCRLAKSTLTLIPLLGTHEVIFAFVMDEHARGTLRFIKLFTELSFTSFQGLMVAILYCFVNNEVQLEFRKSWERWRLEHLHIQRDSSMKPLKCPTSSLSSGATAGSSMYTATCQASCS
T2 sequence (P47871 26-477): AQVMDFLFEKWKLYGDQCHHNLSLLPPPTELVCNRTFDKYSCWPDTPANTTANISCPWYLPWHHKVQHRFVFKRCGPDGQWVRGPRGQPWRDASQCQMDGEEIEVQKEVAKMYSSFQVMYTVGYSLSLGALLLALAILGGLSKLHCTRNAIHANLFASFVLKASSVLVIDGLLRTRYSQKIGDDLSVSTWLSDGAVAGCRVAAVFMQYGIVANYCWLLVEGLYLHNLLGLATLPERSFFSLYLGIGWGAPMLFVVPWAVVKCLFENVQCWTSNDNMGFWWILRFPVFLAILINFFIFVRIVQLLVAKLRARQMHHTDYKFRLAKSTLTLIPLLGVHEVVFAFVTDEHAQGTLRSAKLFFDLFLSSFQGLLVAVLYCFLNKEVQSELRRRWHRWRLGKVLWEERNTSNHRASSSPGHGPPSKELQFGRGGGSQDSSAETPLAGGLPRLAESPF

Row | Human GIP R Rel. A (Relative Activity) (Human GIP R) [%] | EC50 (Human GIP R) [nM] | Human GCG R Rel. A (Relative Activity) (Human GCG R) [%] | EC50 (RIN-m5F cells) [nM] | EC50 [1] [nM] | Human GLP-1R Rel. A (Relative Activity) (Human GLP-1R) [%] | EC50 (Human GLP-1R) [nM] | EC50 (Human GCG R; stable transfected cell cAMP activity, at least 3 independent tests) [nM] | Compound | Rel. A (Relative Activity) on RIN-m5F (RIN-m5F cells) [%] | EC50 (3T3-L1 adipocytes) [nM] | Rel. A (Relative Activity) on 3T3-L1 adipocyte (3T3-L1 adipocytes) [%] | Rel. A (Relative Activity) on human primary liver cells [1] [%] | EC50 (RIN-m5F cells; cAMP, at least 3 independent tests, read-out: EC50 on RIN-m5F rat pancreatic islet tumor cells) [nM]
1 | 724.00 | 0.025 | 24.57 | 0.624 | 2.37 | 169.23 | 0.026 | – | CC[C@H](C)[C@H](NC(=O)[C@H](Cc1ccccc1)NC(=O)[C@H](C)NC(=O)C(C)(C)NC(=O)[C@H](CCC(N)=O)NC(=O)[C@H](C)NC(=O)[C@H](CCCCNC(=O)COCCOCCNC(=O)COCCOCCNC(=O)CC[C@H](NC(=O)CCCCCCCCCCCCCCCCCCC(=O)O)C(=O)O)NC(=O)[C@H](CCCCN)NC(=O)[C@H](CC(=O)O)NC(=O)[C@H](CC(C)C)NC(=O)[C@](C)(CC(C)C)NC(=O)[C@@H](NC(=O)[C@H](CO)NC(=O)[C@H](Cc1ccc(O)cc1)NC(=O)[C@H](CC(=O)O)NC(=O)[C@H](CO)NC(=O)[C@@H](NC(=O)[C@](C)(Cc1ccccc1)NC(=O)[C@@H](NC(=O)CNC(=O)[C@H](CCC(N)=O)NC(=O)C(C)(C)NC(=O)[C@@H](N)Cc1ccc(O)cc1)[C@@H](C)O)[C@@H](C)O)[C@@H](C)CC)C(=O)N[C@@H](CCC(=O)O)C(=O)N[C@@H](Cc1ccc(O)cc1)C(=O)N[C@@H](CC(C)C)C(=O)N[C@@H](CC(C)C)C(=O)N[C@@H](CCC(=O)O)C(=O)N[C@H](C(=O)N[C@@H](Cc1c[nH]cn1)C(=O)N1CCC[C@H]1C(=O)N[C@@H](CO)C(=O)N[C@@H](CO)C(=O)NCC(=O)N[C@@H](C)C(=O)N1CCC[C@H]1C(=O)N1CCC[C@H]1C(=O)NC1(C(=O)N[C@@H](CO)C(N)=O)CC1)[C@@H](C)O [Compound 2] (H-Y[Aib]QGT[αMeF]TSDYSI[αMeL]LDKK([AEEA-AEEA-γGlu-C20 diacid])AQ[Aib]AFIEYLLETHPSSGAPP[Ac3c]S-NH2; N-terminus assumed) | 165.38 | 2.49 | 152.63 | 164.32 | –
2 | 1292.86 | 0.014 | 98.28 | 1.59 | 0.299 | 220.00 | 0.02 | 0.058 | CC[C@H](C)[C@H](NC(=O)[C@H](Cc1ccccc1)NC(=O)[C@H](C)NC(=O)C(C)(C)NC(=O)[C@H](CCC(N)=O)NC(=O)[C@H](C)NC(=O)[C@H](CCCCNC(=O)COCCOCCNC(=O)COCCOCCNC(=O)CC[C@H](NC(=O)CCCCCCCCCCCCCCCCCCC(=O)O)C(=O)O)NC(=O)[C@H](CCCCN)NC(=O)[C@H](CC(=O)O)NC(=O)[C@H](CC(C)C)NC(=O)[C@](C)(CC(C)C)NC(=O)[C@@H](NC(=O)[C@H](CO)NC(=O)[C@H](Cc1ccc(O)cc1)NC(=O)[C@H](CC(=O)O)NC(=O)[C@H](CO)NC(=O)[C@@H](NC(=O)[C@](C)(Cc1ccccc1F)NC(=O)[C@@H](NC(=O)CNC(=O)[C@H](Cc1c[nH]cn1)NC(=O)C(C)(C)NC(=O)[C@@H](N)Cc1ccc(O)cc1)[C@@H](C)O)[C@@H](C)O)[C@@H](C)CC)C(=O)N[C@@H](CCC(=O)O)C(=O)N[C@@H](Cc1ccc(O)cc1)C(=O)N[C@@H](CC(C)C)C(=O)N[C@@H](CC(C)C)C(=O)N[C@@H](CCC(=O)O)C(=O)NC(C)(C)C(=O)N[C@@H](Cc1c[nH]cn1)C(=O)N1CCC[C@H]1C(=O)N[C@@H](CO)C(=O)N[C@@H](CO)C(=O)NCC(=O)N[C@@H](CCC(N)=O)C(=O)N1CCC[C@H]1C(=O)N1CCC[C@H]1C(=O)N1CCC[C@H]1C(=O)N[C@@H](CO)C(N)=O [Compound 6] (H-Y[Aib]HGT[αMePhe(2-F)]TSDYSI[αMeL]LDKK([AEEA-AEEA-γGlu-C20 diacid])AQ[Aib]AFIEYLLE[Aib]HPSSGQPPPS-NH2; N-terminus assumed) | 64.74 | 1.01 | 374.58 | 1301.34 | –
3 | – | – | – | – | – | – | – | – | CC[C@H](C)[C@H](NC(=O)[C@H](Cc1ccccc1)NC(=O)[C@H](C)NC(=O)C(C)(C)NC(=O)[C@H](CCC(N)=O)NC(=O)[C@H](C)NC(=O)[C@H](CCCCNC(=O)COCCOCCNC(=O)CC[C@H](NC(=O)CCCCCCCCCCCCCCCCCCC(=O)O)C(=O)O)NC(=O)[C@H](CCCCN)NC(=O)[C@H](CC(=O)O)NC(=O)[C@H](CC(C)C)NC(=O)[C@](C)(CC(C)C)NC(=O)[C@@H](NC(=O)[C@H](CO)NC(=O)[C@H](Cc1ccc(O)cc1)NC(=O)[C@H](CC(=O)O)NC(=O)[C@H](CO)NC(=O)[C@@H](NC(=O)[C@H](Cc1ccccc1)NC(=O)[C@@H](NC(=O)CNC(=O)[C@H](CCC(N)=O)NC(=O)C(C)(C)NC(=O)[C@@H](N)Cc1ccc(O)cc1)[C@@H](C)O)[C@@H](C)O)[C@@H](C)CC)C(=O)N[C@@H](CCC(=O)O)C(=O)N[C@@H](Cc1ccc(O)cc1)C(=O)N[C@@H](CC(C)C)C(=O)N[C@@H](CC(C)C)C(=O)N[C@@H](CCC(=O)O)C(=O)NC(C)(C)C(=O)NCC(=O)N1CCC[C@H]1C(=O)N[C@@H](CO)C(=O)N[C@@H](CO)C(=O)NCC(=O)N[C@@H](C)C(=O)N1CCC[C@H]1C(=O)N1CCC[C@H]1C(=O)N1CCC[C@H]1C(=O)N[C@@H](CO)C(N)=O [Compound 45] (H-Y[Aib]QGTFTSDYSI[αMeL]LDKK([AEEA-γGlu-C20 diacid])AQ[Aib]AFIEYLLE[Aib]GPSSGAPPPS-NH2) | – | 8.11 | 46.89 | – | –

Row | Compound | Human GIP R Rel. A (Relative Activity) (Human GIP R) [%] | EC50 (Human GIP R) [nM] | Human GCG R Rel. A (Relative Activity) (Human GCG R) [%] | EC50 (RIN-m5F cells) [nM] | EC50 [1] [nM] | Human GLP-1R Rel. A (Relative Activity) (Human GLP-1R) [%] | EC50 (Human GLP-1R) [nM] | EC50 (Human GCG R; stable transfected cell cAMP activity, at least 3 independent tests) [nM] | Rel. A (Relative Activity) on RIN-m5F (RIN-m5F cells) [%] | EC50 (3T3-L1 adipocytes) [nM] | Rel. A (Relative Activity) on 3T3-L1 adipocyte (3T3-L1 adipocytes) [%] | Rel. A (Relative Activity) on human primary liver cells [1] [%] | EC50 (RIN-m5F cells; cAMP, at least 3 independent tests, read-out: EC50 on RIN-m5F rat pancreatic islet tumor cells) [nM]
4 | GLP-1(7-37) [reference compound] | – | – | – | – | – | 100.00 | – | – | 100.00 | – | – | – | 1.03
